# According to patent US20050008664A1, “Compositions and methods related to lipid:emodin formulations” (Board of Regents, The University of Texas System, priority 2002, published 2005):
# Columns and labels:
# [1] = test system: tetracycline regulatable 32D-P210 cell line; assay: MTT assay of cell growth, 3 day exposure to emodin; format: cell-based; conditions: emodin solubilized in DMSO, MTT assay at 72 hours, read-out: IC 50, inhibition of cellular growth
# Experimental: In Vitro: A tetracycline regulatable 32D-P210 cell line was cultured in RPMI 1640 with 10% FCS and 10% Wehi supernatant and cultured at 37° C. Emodin was solubilized in DMSO at a concentration of 0.4 M for in vitro assays. A concentration of 3×10^4 cells/ml were used in a 24 well plate for a 3 day exposure to emodin. Emodin was assayed at 60 μM, 30 μM, and 10 μM concentrations. At 72 hours, a MTT assay was performed to provide a colorometric analysis of cell growth.
# leukemia = assay: In vivo study of alkaline emodin preparation in leukemia-injected C3H-HEJ mice
# Experimental: In vivo: The mouse strain C3H-HEJ (8-10 weeks old) were used for in vivo studies. Emodin was prepared in an alkaline preparation at 10 mg/ml, and was administered to the animals via tail vein injections. One cohort of animals received a single dose of emodin equal to 43 mg/kg per animal. Two other cohorts received either two doses of drug, administered on consecutive days, or there doses of drug, administered on consecutive days. The total concentration of drug administered were 86 mg/kg and 129 mg/kg, respectively. Animals were followed until death, euthanized upon detection of illness, or euthanized at 100 days post leukemia injection.
structure (smiles),measurement,setting,value
"Cc1cc(O)c2c(c1)C(=O)c1cc(O)cc(O)c1C2=O [emodin, 3-methyl-1,6, 8 trihydroxyanthra-quinone]",IC50,[1],~10 µM
same,tolerability of the preparation by the animal,"leukemia; alkaline preparation at pH 10, tail vein injection, some bruising of the tail noted",moderately well tolerated
same,lifespan of animals injected with leukemia,"leukemia; alkaline preparation, tail vein injections, 43, 86 or 129 mg/kg total, untreated 25 days, animals sacrificed at 100 days",100 days
